Experiments:
Type in all cases: in vivo, human
[1] = tested on: subjects thought to have hyperuricemia; assay: Test Example 3: randomized double blind test, serum uric acid level and uric acid clearance value, powder of Example 1 vs placebo, 14 days
Experimental: Sixteen subjects who were 20 years old or older and thought to have hyperuricemia under the following conditions were grouped into 2 each consisting of 8 subjects. A placebo and the powder prepared in Example 1 were administered to the respective groups twice a day by 2.04 g (2000 mg in terms of taurine amount) in a single dose for 14 days. The change in the uric acid level was checked by a randomized double blind test.
Before this test was started, screening tests were conducted twice. Subjects who met the condition of Condition below in the first screening test were subjected to the second screening. Subjects who met Condition again in the second screening test were subjected to this test. Furthermore, in this test, in order to check the change in a uric acid clearance value that would influence the change in the uric acid level, the uric acid level and the uric acid clearance value were measured four times, that is, 1 hour before administration, 1 hour after administration, 2 hours after administration, and 3 hours after administration when the taurine administration was started as well as similarly four times when the administration was completed. It should be noted that in order to make conditions equal between when the administration was started and when completed, the subjects were stayed in a hospital 3 days and 2 nights before each measurement, and had the same meals.
Incidentally, one case which was assigned to the taurine-administered group was terminated because another disease occurred during the 14-day administration period.
Condition: serum uric acid level was 7.0 mg/dL or above but below 9.0 mg/dL
In addition, as in Test Examples 1 and 2, each administration group was sub-grouped with a benchmark of the uric acid level of 7.0 mg/dL at the start. The percentage of change in the uric acid level was compared in each group.
Next, the change (ratio of change) in the uric acid clearance value, when the administration was started, representing uric acid-excretion efficiency was compared between the administration groups.
Moreover, the change (ratio of change) in the uric acid clearance value when the administration was completed was also compared between the administration groups.

[2] = tested on: subjects thought to have lifestyle diseases; assay: Test Example 1: randomized double blind test, change in uric acid level, powder of Example 1 vs placebo, 14 days; conditions: for uric acid level degree changed MAX / uric acid level degree changed MEDIAN / uric acid level degree changed MIN / uric acid level degree changed MEAN: start to completion
Experimental: Forty subjects who were 20 years old or older and thought to have lifestyle diseases under the following conditions were grouped into 2 each consisting of 20 subjects. A placebo and the powder prepared in Example 1 were administered to the respective groups twice a day by 2.04 g (2000 mg in terms of taurine amount) in a single dose for 14 days. The change in the uric acid level was checked by a randomized double blind test.
Before this test was started, screening tests were conducted twice. Subjects who met all the conditions of Conditions 1 to 3 below in the first screening test were subjected to the second screening. Further, since the amount of taurine in the body seemed to influence the result of this test, subjects who met Condition 4 in addition to Conditions 1 to 3 in the second screening test were subjected to this test. In each administration group, the result was sub-grouped with a benchmark of the uric acid level of 7.0 mg/dL which served as the index for hyperuricemia. The uric acid levels were compared between the groups.
Incidentally, one case which was assigned to the taurine-administered group was terminated because another disease occurred before the administration was started.
Condition 1: LDL cholesterol was 140 mg/dL or above
Condition 2: triglyceride was 150 mg/dL or above but below 400 mg/dL
Condition 3: total cholesterol was 220 mg/dL or above
Condition 4: an amount of urinary taurine excreted (in urine collected for 24 hours) was 1500 μmol or below
In addition, each administration group was sub-grouped with a benchmark of the uric acid level of 7.0 mg/dL at the start, and the percentage of change in the uric acid level was compared in each group.

[3] = tested on: subjects thought to have hyperuricemia; assay: Test Example 3: randomized double blind test, serum uric acid level and uric acid clearance value, powder of Example 1 vs placebo, 14 days; conditions: 1 hour before administration at start vs 3 hours before administration at completion, 2000 mg taurine twice a day, FIG. 1
[4] = tested on: subjects of Test Examples 1 to 3; assay: Taurine-administered cases of Test Examples 1 to 3 summed, degree of uric acid level changed; conditions: for uric acid level degree changed MAX / uric acid level degree changed MEDIAN / uric acid level degree changed MIN / uric acid level degree changed MEAN: start to completion; for mean value of uric acid level decreased by / median of uric acid level decreased by: Table 6
Experimental: Next, degrees of serum uric acid levels changed before and after the administration in the taurine-administered cases of Test Examples 1 to 3 were lined up in the order of subjects having higher levels before the administration.
Moreover, the taurine-administered cases of Test Examples 1 to 3 were summed and sub-grouped with a benchmark of the uric acid level of 7.0 mg/dL at the start. Degrees of uric acid levels changed were compared between the sub-groups.

[5] = start level 7.0 mg/dL or above, 4 cases
[6] = start level below 7.0 mg/dL, 3 cases
[7] = start level 7.0 mg/dL or above, 8 cases
[8] = start level 7.0 mg/dL or above, 8 cases, at completion (14 days)
[9] = start level 7.0 mg/dL or above, 8 cases, at start
[10] = start level below 7.0 mg/dL, 11 cases
[11] = start level below 7.0 mg/dL, 11 cases, at completion (14 days)
[12] = start level below 7.0 mg/dL, 11 cases, at start
[13] = subjects with uric acid level 7.0 mg/dL or above, Table 1
[14] = subjects with uric acid level below 7.0 mg/dL, Table 1
[15] = start level 7.0 mg/dL or above, 60 cases, at completion
[16] = start level 7.0 mg/dL or above, 60 cases, at start
[17] = start level 7.0 mg/dL or above, 60 cases
[18] = start level below 7.0 mg/dL, 87 cases, at completion
[19] = start level below 7.0 mg/dL, 87 cases, at start
[20] = start level below 7.0 mg/dL, 87 cases
[21] = subjects with uric acid level 7.0 mg/dL or above
[22] = subjects with uric acid level below 7.0 mg/dL

In the case of `NCCS(=O)(=O)O` [Taurine, aminoethylsulfonic acid], the “Change in uric acid level: subjects who did not show decrease” value [1, 5] is reported as 0 (0.0) ( ): %, the “Change in uric acid level: subjects who showed decrease” value (“Change … subjects who showed decrease” for short) [1, 5] is reported as 4 (100.0) ( ): % and the “Change … subjects who showed decrease” value ([1]; start level 7.0 mg/dL or above, 4 cases, listed as taurine) is reported as 4 ( ): %. For the same molecule, the “Change in uric acid level: subjects who did not show decrease” value [1, 6] was 1 (33.3) ( ): %, the “Change … subjects who showed decrease” value [1, 6] was 2 (66.7) ( ): % and the “uric acid clearance value, mean ratio of change (increase)” value ([1]; when the administration was completed, 2 hours after the administration, FIG. 3) was no less than 30%. The “uric acid clearance value, mean ratio of change (increase)” value ([1]; when the administration was completed, 3 hours after the administration, FIG. 3) was no less than 20%, the “uric acid clearance value, mean ratio of change (increase)” value ([1]; when the administration was started, 2 hours after the administration, FIG. 2) was no less than 40% and the “uric acid clearance value, mean ratio of change (increase)” value ([1]; when the administration was started, 3 hours after the administration, FIG. 2) was no less than 30%. For the same molecule, the “Change in uric acid level: subjects who did not show decrease” value [2, 7] was 0 (0.0) ( ): %, the “Change … subjects who showed decrease” value [2, 7] was 8 (100.0) ( ): % and the “uric acid level MAX” value [2, 8] was 8.3 mg/dL. The “uric acid level MEAN” value [2, 8] was 7.36 mg/dL, the “uric acid level MEDIAN” value [2, 8] was 7.50 mg/dL and the “uric acid level MIN” value [2, 8] was 6.4 mg/dL. For the same molecule, the “uric acid level MAX” value [2, 9] was 9.1 mg/dL, the “uric acid level MEDIAN” value [2, 9] was 8.30 mg/dL and the “uric acid level MIN” value [2, 9] was 7.0 mg/dL. The “uric acid level MEAN” value ([2]; start level 7.0 mg/dL or above, 8 cases, at start, 2000 mg taurine twice a day, 14 days) was 8.11 mg/dL, the “Change … subjects who showed decrease” value ([2]; start level 7.0 mg/dL or above, 8 cases, listed as taurine) was 8 ( ): % and the “uric acid level degree changed MAX” value [2, 7] was -0.3 mg/dL. The “uric acid level degree changed MEDIAN” value [2, 7] was -0.70 mg/dL, the “uric acid level degree changed MIN” value [2, 7] was -1.3 mg/dL and the “uric acid level degree changed MEAN” value ([2]; start level 7.0 mg/dL or above, 8 cases, one-sample t-test P < 0.001) was -0.75 mg/dL. The “two-sample t-test estimation: difference in degree changed, taurine group vs placebo group” value ([2]; start level 7.0 mg/dL or above, 95% CI −1.42 to −0.15, P = 0.020) was −0.78[−1.42 mg/dL, the “Change in uric acid level: subjects who did not show decrease” value [2, 10] was 6 (54.5) ( ): % and the “Change … subjects who showed decrease” value [2, 10] was 5 (45.5) ( ): %. For the same molecule, the “uric acid level MAX” value [2, 11] was 6.5 mg/dL, the “uric acid level MEAN” value [2, 11] was 5.49 mg/dL and the “uric acid level MEDIAN” value [2, 11] was 5.9 mg/dL. For the same molecule, the “uric acid level MIN” value [2, 11] was 1.1 mg/dL, the “uric acid level MAX” value [2, 12] was 6.8 mg/dL and the “uric acid level MEAN” value [2, 12] was 5.54 mg/dL. The “uric acid level MEDIAN” value [2, 12] was 5.9 mg/dL, the “uric acid level MIN” value [2, 12] was 0.8 mg/dL and the “uric acid level degree changed MAX” value [2, 10] was 0.5 mg/dL. For the same molecule, the “uric acid level degree changed MEDIAN” value [2, 10] was 0.1 mg/dL, the “uric acid level degree changed MIN” value [2, 10] was -0.9 mg/dL and the “uric acid level degree changed MEAN” value ([2]; start level below 7.0 mg/dL, 11 cases, one-sample t-test P = 0.747) was -0.05 mg/dL. The “two-sample t-test estimation: difference in degree changed, taurine group vs placebo group” value ([2]; start level below 7.0 mg/dL, 95% CI −0.44 to 0.18, P = 0.386) was −0.13[−0.44 mg/dL, the “mean value of uric acid level decreased by” value [2, 13] was 0.75 mg/dL and the “median of uric acid level decreased by” value [2, 13] was 0.70 mg/dL. For the same molecule, the “mean value of uric acid level decreased by” value [2, 14] was 0.05 mg/dL, the “median of uric acid level increased by” value [2, 14] was 0.1 mg/dL and the “two-sample t-test estimation: difference in degree changed between sub-groups” value ([2]; taurine group, 7.0 mg/dL or above vs below 7.0 mg/dL, 95% CI −1.09 to −0.31, P = 0.001) was −0.70[−1.09 mg/dL. For the same molecule, the “mean value of serum uric acid level decreased by” value [3] was 0.53 mg/dL, the “two-sample t-test estimation: difference in degree changed between sub-groups” value ([4]; 7.0 mg/dL or above vs below 7.0 mg/dL, 95% CI −0.69 to −0.30, P < 0.001) was −0.49[−0.69 mg/dL and the “uric acid level after oral administration (conclusion)” value ([4]; results of Test Examples 1 to 3) was “significant decrease”. The “uric acid level MAX” value [4, 15] was 10.6 mg/dL, the “uric acid level MEAN” value [4, 15] was 7.33 mg/dL and the “uric acid level MEDIAN” value [4, 15] was 7.35 mg/dL. The “uric acid level MIN” value [4, 15] was 4.6 mg/dL, the “uric acid level MAX” value [4, 16] was 10.8 mg/dL and the “uric acid level MEDIAN” value [4, 16] was 7.80 mg/dL. For the same molecule, the “uric acid level MIN” value [4, 16] was 7.0 mg/dL, the “uric acid level MEAN” value ([4]; start level 7.0 mg/dL or above, 60 cases, at start, Test Examples 1 to 3 summed) was 7.95 mg/dL and the “uric acid level degree changed MAX” value [4, 17] was 0.7 mg/dL. For the same molecule, the “uric acid level degree changed MEDIAN” value [4, 17] was -0.60 mg/dL, the “uric acid level degree changed MIN” value [4, 17] was -2.6 mg/dL and the “uric acid level degree changed MEAN” value ([4]; start level 7.0 mg/dL or above, 60 cases, one-sample t-test P < 0.001) was -0.62 mg/dL. For the same molecule, the “uric acid level MAX” value [4, 18] was 7.6 mg/dL, the “uric acid level MEAN” value [4, 18] was 5.54 mg/dL and the “uric acid level MEDIAN” value [4, 18] was 5.5 mg/dL. The “uric acid level MIN” value [4, 18] was 1.1 mg/dL, the “uric acid level MAX” value [4, 19] was 6.9 mg/dL and the “uric acid level MEAN” value [4, 19] was 5.67 mg/dL. The “uric acid level MEDIAN” value [4, 19] was 5.8 mg/dL, the “uric acid level MIN” value [4, 19] was 0.8 mg/dL and the “uric acid level degree changed MAX” value [4, 20] was 1.0 mg/dL. For the same molecule, the “uric acid level degree changed MEDIAN” value [4, 20] was -0.1 mg/dL, the “uric acid level degree changed MIN” value [4, 20] was -1.6 mg/dL and the “uric acid level degree changed MEAN” value ([4]; start level below 7.0 mg/dL, 87 cases, one-sample t-test P = 0.028) was -0.13 mg/dL. The “mean value of uric acid level decreased by” value [4, 21] was 0.62 mg/dL, the “median of uric acid level decreased by” value [4, 21] was 0.60 mg/dL and the “mean value of uric acid level decreased by” value [4, 22] was 0.13 mg/dL. The “median of uric acid level decreased by” value [4, 22] was 0.1 mg/dL.

— US9101588B2, “Composition for lowering blood uric acid level” (TAISHO PHARMACEUTICAL CO., LTD., priority 2009, dated 2015)
